Data: patent publication US20130203830A1, “Compounds for Prevention of Cell Injury” (SULFATEQ B.V., priority 2010, published 2013)
Entries after “also recorded” stand apart in the source; their conditions may differ.

How the values were obtained:
[1] = test system: Cystathionine-β-synthase (CBS); assay: CBS expression in SMAC cells (western blot); type: cell-based, rat; conditions: serotonin 1.3 μM
Procedure: To investigate the potential of serotonin in upregulating CBS expression in cells, SMAC cells were cultured in a 6 well plate one day before serotonin treatment. After reaching confluence, cells were incubated with 1.3 μM serotonin in SMAC cell complete medium. Control wells only contained the medium. At every time point (5, 10, min), cells were washed with PBS, lysed using RIPA buffer and western blotted to study the change in CBS expression level.
To investigate the role of Cystathione beta-synthase activity in the protective effect of serotonin the expression of CBS was reduced by applying a predesigned siRNA (sc-60336, Santa Cruz, USA) and compared to a silencer negative control (Ambion, AM4644, Huntingdon, UK). DDT-1 and SMAC cells at 60-80% confluence were seeded in 96 or 6 well plates in antibiotic-free normal growth medium supplemented with FCS. […] The protein concentration was measured by Bradford assay in all the samples. […] Proteins were transferred to a nitrocellulose membrane and detected by West Pico Chemiluminescent Substrate (supersignal), photographed and analyzed with genetool software (version 3.08, SynGene, England). […]

SMAC cells [2] = assay: H2S content of SMAC cell homogenates (methylene blue method); type: cell-based, rat; conditions: hypothermic SMAC cells 24 h, 3° C., pretreatment 15 min, 1.3 μM
Procedure: Methylene blue method for H2S detection was applied to quantitatively measure the H2S production. Cells were washed with PBS, scraped and centrifuged for 60 sec at 1000 rpm. After removal of the supernatant, zinc acetate 1% in water (200 μl) was added to the cell sediments and the cells were disrupted by small glass beads and vortexed for 20 seconds. Diamine-ferric solution was prepared by mixing 100 μl of a 400 mg N,N-dimethyl-p-phenylenediamine dihydrochloride dissolved in 10 ml 6M HCl and 100 μl of 600 mg ferric chloride in 10 ml 6M HCl. Two hundred μl of this mixture was added to the cell suspension and after an incubation time of 30 min at 37° C. and centrifugation, the amount of methylene blue formed in the supernatant was measured at a wavelength of 670 nm. To measure H2S content of supernatant, the same procedure was repeated for the cell free medium of cells incubated at both 37° C. and 3° C. Blanks were made following the same procedure without cells or using fresh medium. The concentration of H2S was calculated by extrapolation using a standard curve obtained from different concentrations of Methylene blue and spectrophotometric measurement at a wavelength of 670 nm. The amount of H2S present was calculated on the basis that every mole of methylene blue formed in this reaction contains 32 g (1 mole) of captured sulfur.

[3] = test system: CBS enzyme isolated from DDT-1 cells; assay: Activity of isolated CBS enzyme (H2S production); type: biochemical, hamster; conditions: both at 37° C. and 3° C.
Procedure: To examine the potential of serotonin to act as a cofactor or allosteric activator of CBS, the enzyme was isolated from DDT-1 cells. In brief, DDT-1 cells were lyzed by a non-denaturing buffer. CBS antibody (1 μg/ml) was diluted in coating solution and 100 μl of it was added to each well of a microplate. The plates were left at 4° C. over night. The wells were washed with PBS three times for 2 min and 10 μg/ml of the protein was added to each well and the microplate was left at 4° C. for another 24 hr and later washed three times with PBS. The substrates cysteine and homocysteine at the concentration of 10 μmol each were mixed and 100 μl was added to each well in the absence or presence of PLP (pyridoxal-5-phosphate) or serotonin (30 nmol) in PBS.

SMAC cells [4] = assay: Caspase 3/7 assay in hypothermic SMAC cells; type: cell-based, rat; conditions: serotonin 5 nmol/L
SMAC cells [5] = assay: Survival of SMAC cells after hypothermia (MTS assay / cell counting); type: cell-based, rat; conditions: SMAC cells, 24 h at 3° C., substance added 15 min before hypothermia
Procedure: Cell lines used included NRK (normal rat kidney cells), DDT-1 (hamster ductus deferens muscle cells) and A7R5 (rat vascular smooth muscle cells) cultured in DMEM (Gibco, 41966, UK) and SMAC (rat smooth muscle aortic cells) and THMC (transformed human mesangial cell) cultured in DMEM/F12 (Gibco, E12-719F). All media were supplied with 10% (vol/vol) fetal calf serum and 1% penicillin-streptomycin and cultured at 37° C. in 5% CO2 in 25 cm^2 or 75 cm^2 flasks. For hypothermia experiments, cells were plated in 6 or 96 wells plates and grown to confluence. Thereupon, cells were placed at 3° C. for up to 24 hours. Cell survival was measured by counting of trypan blue stained cells or MTS assay, which measures the number of viable cells. For the latter, 20 μl of MTS solution was added to each well and cells were subsequently placed in the incubator at 37° C. in 5% CO2 for 3 hr before assessing the cell survival by measuring absorption using a microplate reader at 490 nm.
MTS assay was performed to investigate cell survival after blocking serotonin transporter and hypothermic treatment.

NCCc1c[nH]c2ccc(O)cc12 [serotonin, Serotonin]
induction of CBS expression ([1]; SMAC cells, 37° C., 15 min): 4 fold | CBS expression in 37° C. SMAC cells [1]: upregulates CBS expression | H2S content (SMAC cells [2]): 1.4±0.2 μmoles per 10̂6 cells | increase of H2S content (SMAC cells [2]; vs untreated): 8 fold | activity of isolated CBS [3]: increase the activity | apoptosis (caspase 3/7) in hypothermic SMAC cells (SMAC cells [4]): completely and dose dependently attenuated | protection against hypothermic cell death / reduction in number of cells (SMAC cells [5]): concentration-dependently prevented; also recorded: Protection of hypothermic cell death
